Assay results as given in patent US6218112A, “Optimization of gene delivery and gene delivery system” (Cobra Therapeutics Limited, priority 1997, dated 2001).
* marks the point of attachment. Acm = CC(=O)NC*

What was measured:
[1] = test system: cells; experiment: Transfection efficiency / activity of complexes (general statement); type: cell-based; details: related to affinity for nucleic acid
[2] = test system: KLN-205 squamous epithelial syngenic tumour cells; experiment: In vivo transfection of KLN-205 tumours in DBA2 mice by local injection of peptide/plasmid complexes (nitroreductase immunostaining); parameters: species or system mouse; details: for ranking by numbers of transfected tumor cells (most to least efficient): 0.5 μg peptide/μg DNA, intratumoural injection
Method: A representative in via cell transfection system is transfection of tumor cells using a murine carcinoma model.
The murine carcinoma model DBA2 containing the squamous epithelial syngenic tumour cell line KLN-205 was prepared as described in the Examples. A transfecting complex was prepared using a solution of plasmid DNA encoding a reporter gene or, for example, nitroreductase and a selected NBC peptide 0.5 μg peptide/μg DNA, as described herein. Where desired, a conjugate peptide was added to the transfecting complex, at a concentration of 0.1-0.3 μg […] peptide/μg DNA.
Transfection efficiency may be determined in a number of ways, including assessing the effect of the reporter gene on the target tissue, or by quantitating the gene product. Below, tissues samples were obtained and nitroreductase gene expression was ascertained via staining of tissue sections.
The ability to transfect tumor cells in vivo in mice was tested using plasmid nucleic acid carrying the nitroreductase reporter gene condensed on each of the following peptides: NBC15, NBC8, NBC9, NBC11, NBC7.
DBA2--male mice, aged 5-10 weeks were injected subcutaneously in each flank with a squamous epithelial syngenic tumour cell line KLN-205. The cell line was grown up in 175 ml T-flasks in standard EMEM medium containing 10% foetal calf serum. When the cells reached a density of 4×10^6 they were suspended by a standard trypsinization technique, washed in PBS and diluted to a final concentration of […].
The anaesthetic was Enflurane (Alynane; Anaquest, Ltd., Windlesham, Surrey UK): Ketamine (10% Ketaset, Willows Francis Veterinary, Cramley, West Sussex, UK); Rompun (2%, Bayer UK, Ltd., Suffolk, UK). For 10 ml anaesthetic mixture: 8.5 ml PBS; 1 ml Ketamine; 0.5 ml Rompun. Each animal was injected intra-peritoneally with 200 μl/animal using 1 ml syringe with 25 gauge needle. Once anaesthetized, the tumour is manipulated between the fingers lifting it slightly away from the animal's body and at the same time apply minimum pressure to the tumour. Using a 0.5 ml insulin needle the formulated delivery vehicle (a plasmid containing the E. coli nitroreductase gene condensed on a peptide at a ratio of 0.5 μg peptide/μg DNA) to be injected is taken up and the tumour is injected horizontally trying to avoid any visible blood vessels and necrotic or abnormal tissue. Daily monitoring is continued until the experiment is terminated.
7μ sections of frozen tumour tissue are prepared using standard methods and a Cryostat and air dried. Sections are fixed with freshly prepared 4% PFA/PBS for 30 mins at room temperature and then washed twice with 0.01% Tween-20/PBS 5 mins each wash. Sections are then immersed in 0.25% hydrogen peroxide/PBS, at room temperature (20C.) for 30 mins, and then washed three times in 0.01% Tween 20/PBS for 5 mins each wash. Sections are then permeabilised by treatment with ice cold 0.1 % TRITON X-100 for 5 mins, followed by a further two washes in 0.01% Tween-20/PBS 5mins each wash. The sections are then blocked with 5% NGS/PBS 60mins at room temperature in a wetbox. After decanting the blocking solution, 0.5 ml diluted antiserum/slide (1:400 in 2.5% NGS) is added and the sections incubated for 60 mins at room temperature. Slides are then washed three times in 0.01% Tween-20/PBS 5 mins each wash. Secondary antibody (0.5 ml) from ABC Elite Vector stain kit is added as follows and incubated 30 mins at room temperature in a wetbox.
The tumour is a murine syngenic squamous carcinoma produced by subcutaneous injection of KLN205 cells. When the tumours were approximately 4 mm in diameter they were injected with 20 μl of plasmid DNA formulated with the NBC15 peptide. After 48 h the tumours were excised and sectioned by standard histological techniques and immunostained for expression of the transgene (E. coli nitroreductase). […] In this case the tumours were injected with the same plasmid formulated in 0.5 μg NBC9 peptide/μg DNA.

Substance | transfection efficiency [1] | ranking by numbers of transfected tumor cells (most to least efficient) [2] | transfection efficiency on direct injection within a localized area ([2]; in vivo, direct injection, e.g. a tumour)
NH2-TKKAWKKAEKKAAKKCGVSAKKAAKKAWKKA-CONH2 (H-TKKAWKKAEKKAAKKCGVSAKKAAKKAWKKA-NH2) [NBC11] | not completely deleterious to transfection | NBC15>NBC8, NBC9, NBC11>NBC7>>>poly-lysine | –
NH2-KKSPKKAKKPAAKKSPKKAKKPAYC(Acm)-COOH (H-KKSPKKAKKPAAKKSPKKAKKPAYC(Acm)-OH; SMILES CC(=O)NCSC[C@H](NC(=O)[C@H](Cc1ccc(O)cc1)NC(=O)[C@H](C)NC(=O)[C@@H]1CCCN1C(=O)[C@H](CCCCN)NC(=O)[C@H](CCCCN)NC(=O)[C@H](C)NC(=O)[C@H](CCCCN)NC(=O)[C@H](CCCCN)NC(=O)[C@@H]1CCCN1C(=O)[C@H](CO)NC(=O)[C@H](CCCCN)NC(=O)[C@H](CCCCN)NC(=O)[C@H](C)NC(=O)[C@H](C)NC(=O)[C@@H]1CCCN1C(=O)[C@H](CCCCN)NC(=O)[C@H](CCCCN)NC(=O)[C@H](C)NC(=O)[C@H](CCCCN)NC(=O)[C@H](CCCCN)NC(=O)[C@@H]1CCCN1C(=O)[C@H](CO)NC(=O)[C@H](CCCCN)NC(=O)[C@@H](N)CCCCN)C(=O)O) [NBC8] | – | NBC15>NBC8, NBC9, NBC11>NBC7>>>poly-lysine | optimal transfection efficiency
